Experimental data reported in ChEMBL document CHEMBL5053515, “Insights into Ergochromes of the Plant Pathogen Claviceps purpurea” (J Nat Prod, 2021).
pIC50: −log10 of the molar value. Calls of active or inactive are those of the source. The rule behind the calls is not given here.

Legend:
HepG2 [1] = experiment: Cytotoxicity against human HepG2 cells assessed as reduction in cell viability measured at 48 hrs by resazurin reagent based assay; type: functional; conditions: HepG2, 48 h
CCF-STTG1 = experiment: Cytotoxicity against human CCF-STTG1 cells assessed as reduction in cell viability measured at 48 hrs by resazurin reagent based assay; type: functional; conditions: CCF-STTG1, 48 h
[2] = target: T1, DNA topoisomerase 1 (Homo sapiens) (UniProt P11387); experiment: Inhibition of topoisomerase 1 (unknown origin) assessed as relaxation of supercoiled plasmid pUC18 measured after 30 mins by ethidium bromide staining based agarose gel electrophoresis
T1 sequence (whole entry): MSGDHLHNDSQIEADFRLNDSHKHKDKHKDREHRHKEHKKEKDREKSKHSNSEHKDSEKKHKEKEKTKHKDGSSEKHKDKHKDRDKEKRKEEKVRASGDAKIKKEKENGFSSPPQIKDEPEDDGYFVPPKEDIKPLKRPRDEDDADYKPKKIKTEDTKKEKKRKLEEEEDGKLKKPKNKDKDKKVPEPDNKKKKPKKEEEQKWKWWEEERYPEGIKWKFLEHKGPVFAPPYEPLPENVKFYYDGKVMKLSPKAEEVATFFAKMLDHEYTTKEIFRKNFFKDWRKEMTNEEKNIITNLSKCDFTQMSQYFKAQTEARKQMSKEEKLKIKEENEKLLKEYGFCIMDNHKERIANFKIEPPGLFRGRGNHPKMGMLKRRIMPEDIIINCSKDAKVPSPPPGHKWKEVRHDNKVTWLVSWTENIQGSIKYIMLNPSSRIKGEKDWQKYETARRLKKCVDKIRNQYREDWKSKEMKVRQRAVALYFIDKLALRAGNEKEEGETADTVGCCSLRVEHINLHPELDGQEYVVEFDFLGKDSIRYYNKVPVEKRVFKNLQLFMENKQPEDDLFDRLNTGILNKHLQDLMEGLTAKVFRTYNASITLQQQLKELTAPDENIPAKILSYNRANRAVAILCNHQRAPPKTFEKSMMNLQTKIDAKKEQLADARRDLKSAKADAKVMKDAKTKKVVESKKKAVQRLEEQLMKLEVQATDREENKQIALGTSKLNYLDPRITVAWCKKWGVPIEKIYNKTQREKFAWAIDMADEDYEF

[3] = target: DNA topoisomerase 2-alpha (Homo sapiens) (UniProt P11388); experiment: Inhibition of human topoisomerase 2a assessed as reduction in decatenation of kinetoplast DNA at 25 uM using kinetoplast DNA as substrate incubated for 2 hrs by ethidium bromide staining based agarose gel electrophoresis method relative to control
Sequence of DNA topoisomerase 2-alpha (Homo sapiens) (P11388 whole entry): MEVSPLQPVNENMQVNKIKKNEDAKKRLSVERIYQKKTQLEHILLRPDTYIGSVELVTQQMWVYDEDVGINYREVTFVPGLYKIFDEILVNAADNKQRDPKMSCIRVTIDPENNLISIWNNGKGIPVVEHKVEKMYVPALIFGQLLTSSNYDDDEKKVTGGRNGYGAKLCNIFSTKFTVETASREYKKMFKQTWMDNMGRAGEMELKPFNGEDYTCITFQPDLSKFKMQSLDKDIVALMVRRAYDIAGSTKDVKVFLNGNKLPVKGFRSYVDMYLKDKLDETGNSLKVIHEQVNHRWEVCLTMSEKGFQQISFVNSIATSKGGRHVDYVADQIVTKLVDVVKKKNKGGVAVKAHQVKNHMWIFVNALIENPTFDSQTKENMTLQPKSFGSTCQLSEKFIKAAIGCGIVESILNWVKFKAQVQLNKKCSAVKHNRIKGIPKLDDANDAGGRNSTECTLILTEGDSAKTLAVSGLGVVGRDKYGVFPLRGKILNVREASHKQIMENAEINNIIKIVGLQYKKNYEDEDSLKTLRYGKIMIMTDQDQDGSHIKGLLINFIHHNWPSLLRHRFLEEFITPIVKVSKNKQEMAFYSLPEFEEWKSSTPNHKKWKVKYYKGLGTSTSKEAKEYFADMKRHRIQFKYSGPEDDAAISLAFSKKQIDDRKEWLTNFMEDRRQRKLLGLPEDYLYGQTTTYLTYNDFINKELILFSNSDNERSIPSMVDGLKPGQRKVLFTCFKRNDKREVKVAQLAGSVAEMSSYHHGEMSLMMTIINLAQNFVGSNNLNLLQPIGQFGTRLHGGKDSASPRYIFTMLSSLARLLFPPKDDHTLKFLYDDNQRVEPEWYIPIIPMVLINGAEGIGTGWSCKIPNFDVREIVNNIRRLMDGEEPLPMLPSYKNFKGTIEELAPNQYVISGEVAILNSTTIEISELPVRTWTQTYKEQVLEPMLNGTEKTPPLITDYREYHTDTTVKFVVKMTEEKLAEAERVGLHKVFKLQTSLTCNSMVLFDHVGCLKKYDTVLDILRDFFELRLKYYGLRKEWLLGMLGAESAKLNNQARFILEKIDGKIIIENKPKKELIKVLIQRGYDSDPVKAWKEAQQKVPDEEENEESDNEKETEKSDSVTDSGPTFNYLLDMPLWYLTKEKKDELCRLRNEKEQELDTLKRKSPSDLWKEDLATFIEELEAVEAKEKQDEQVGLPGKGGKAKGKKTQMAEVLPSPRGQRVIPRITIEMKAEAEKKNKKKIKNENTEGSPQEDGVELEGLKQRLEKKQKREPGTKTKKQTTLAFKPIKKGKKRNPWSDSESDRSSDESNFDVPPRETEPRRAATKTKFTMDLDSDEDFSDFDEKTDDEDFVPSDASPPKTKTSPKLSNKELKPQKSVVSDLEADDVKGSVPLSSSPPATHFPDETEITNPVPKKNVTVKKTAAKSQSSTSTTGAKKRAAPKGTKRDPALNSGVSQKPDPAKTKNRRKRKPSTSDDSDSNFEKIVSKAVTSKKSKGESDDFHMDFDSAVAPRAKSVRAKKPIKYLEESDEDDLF

[4] = target: T1, DNA topoisomerase 1 (Homo sapiens); experiment: Inhibition of topoisomerase 1 (unknown origin) assessed as relaxation of supercoiled plasmid pUC18 DNA at 100 uM measured after 30 mins by ethidium bromide staining based agarose gel electrophoresis relative to control
HepG2 [5] = experiment: Cytotoxicity against human HepG2 cells assessed as reduction in cell viability at up to 100 uM measured at 48 hrs by resazurin reagent based assay; type: functional
HepG2 [6] = experiment: Cytotoxicity against human HepG2 cells assessed as reduction in cell viability at 100 uM measured at 48 hrs by resazurin reagent based assay relative to control; type: functional

Compound	pIC50 (HepG2 [1])	pIC50 (CCF-STTG1)	inhibition [2]	inhibition [3]	inhibition [4]	Activity (HepG2 [5])	Activity (HepG2 [6])
COC(=O)[C@]12Oc3c(-c4ccc(O)c5c4O[C@@]4(C(=O)OC)C(=C(O)C[C@@H](C)[C@@H]4O)C5=O)ccc(O)c3C(=O)C1=C(O)C[C@@H](C)[C@@H]2O	6.05	6.00	–	–	–	–	–
COC(=O)[C@]12Oc3ccc(-c4ccc5c(c4O)C(=O)C4=C(O)C[C@@H](C)[C@H](O)[C@@]4(C(=O)OC)O5)c(O)c3C(=O)C1=C(O)C[C@@H](C)[C@@H]2O [SECALONIC ACID A]	6.05	6.00	Dose-dependent effect	100%	100%	–	–
Cc1cc2c(c(O)c1C(=O)O)C(=O)c1c(O)cc(O)cc1C2=O	–	–	–	–	–	inactive	–
COC(=O)[C@]12Oc3ccc(-c4ccc(O)c5c4O[C@@]4(C(=O)OC)C(=C(O)C[C@@H](C)[C@@H]4O)C5=O)c(O)c3C(=O)C1=C(O)C[C@@H](C)[C@@H]2O	6.05	6.00	–	–	–	–	–
Cc1cc2c(c(O)c1C(=O)O)C(=O)c1c(O)cc(O)c(O)c1C2=O	–	–	–	–	–	inactive	–
C[C@@H]1C[C@@]2(O)OC(=O)[C@@]3(Oc4ccc(-c5ccc6c(c5O)C(=O)C5(O)[C@@]7(O)C[C@@H](C)[C@H](O)[C@]5(O6)C(=O)O7)c(O)c4C(=O)C23O)[C@H]1O (stereo partly specified)	4.22	5.64	inactive	inactive	–	–	3%
COC(=O)[C@]12Oc3ccc(-c4ccc5c(c4O)C(=O)C4(O)C(=O)C[C@@H](C)[C@H](O)[C@@]4(C(=O)OC)O5)c(O)c3C(=O)C1(O)C(=O)C[C@@H](C)[C@@H]2O (stereo partly specified)	4.27	4.87	–	–	–	–	–
COC(=O)[C@@]1(C(O)C(C)CC(=O)O)CC(=O)c2c(ccc(-c3ccc4c(c3O)C(=O)C3(O)C(O)C[C@@H](C)[C@H](O)[C@@]3(C(=O)O)O4)c2O)O1 (stereo partly specified)	–	5.12	inactive	inactive	–	–	–
